Tests used:
Mus musculus [1] = test: Compound was tested for mortality in P388 leukemia implanted BDF1 mice on day 0 after ip administration of 25 mg/kg/day on day 1-5 out of 6 mice; assay type: functional; conditions: route intraperitoneal
Mus musculus [2] = test: Compound was evaluated for %T/C in L1210 leukemia implanted BDF1 mice on day 0 after ip administration of 2.5 mg/kg/day on day 1-5; assay type: functional; conditions: route intraperitoneal
Mus musculus [3] = test: Compound was evaluated for number of survivors in P388 leukemia implanted BDF1 mice on day 0 after ip administration of 50 mg/kg/day on day 60 out of 5 mice; assay type: functional; conditions: route intraperitoneal
Mus musculus [4] = test: Compound was evaluated for %T/C in L1210 leukemia implanted BDF1 mice on day 0 after ip administration of 20 mg/kg/day on days 1-5; assay type: functional; conditions: route intraperitoneal
Mus musculus [5] = test: Compound was evaluated for number of survivors in L1210 leukemia implanted BDF1 mice on day 0 after ip administration of 40 mg/kg/day on day 60 out of 5 mice; assay type: functional; conditions: route intraperitoneal
Mus musculus [6] = test: Compound was evaluated for %T/C in L1210 leukemia implanted BDF1 mice on day 0 after ip administration of 12.5 mg/kg/day on day 1-9; assay type: functional; conditions: route intraperitoneal
Mus musculus [7] = test: Compound was evaluated for number of survivors in L1210 leukemia implanted BDF1 mice on day 0 after ip administration of 6.25 mg/kg/day on day 60 out of 6 mice; assay type: functional; conditions: route intraperitoneal
Mus musculus [8] = test: Compound was evaluated for %T/C in L1210 leukemia implanted BDF1 mice on day 0 after ip administration of 6.25 mg/kg/day on day 1-9; assay type: functional; conditions: route intraperitoneal
Mus musculus [9] = test: Compound was evaluated for %T/C in P388 leukemia implanted BDF1 mice on day 0 after ip administration of 2.5 mg/kg/day on day 1-5; assay type: functional; conditions: route intraperitoneal
Mus musculus [10] = test: Compound was tested for mortality in L1210 leukemia implanted BDF1 mice on day 0 after ip administration of 3.12 mg/kg/day on day 1-9 out of 6 mice; assay type: functional; conditions: route intraperitoneal
Mus musculus [11] = test: Compound was evaluated for %T/C in P388 leukemia implanted BDF1 mice on day 0 after ip administration of 80 mg/kg/day on day 1; assay type: functional; conditions: route intraperitoneal
Mus musculus [12] = test: Compound was evaluated for number of survivors in P388 leukemia implanted BDF1 mice on day 0 after ip administration of 80 mg/kg/day on day 60 out of 5 mice; assay type: functional; conditions: route intraperitoneal
Mus musculus [13] = test: Compound was evaluated for %T/C in P388 leukemia implanted BDF1 mice on day 0 after ip administration of 12.5 mg/kg/day on day 1-5; assay type: functional; conditions: route intraperitoneal
Mus musculus [14] = test: Compound was tested for mortality in P388 leukemia implanted BDF1 mice on day 0 after ip administration of 80 mg/kg/day on day 1 out of 5 mice; assay type: functional; conditions: route intraperitoneal
Mus musculus [15] = test: Compound was evaluated for %T/C in L1210 leukemia implanted BDF1 mice on day 0 after ip administration of 25 mg/kg/day on day 1-9; assay type: functional; conditions: route intraperitoneal
Mus musculus [16] = test: Compound was evaluated for %T/C in L1210 leukemia implanted BDF1 mice on day 0 after ip administration of 3.12 mg/kg/day on day 1-9; assay type: functional; conditions: route intraperitoneal
Mus musculus [17] = test: Compound was tested for mortality in P388 leukemia implanted BDF1 mice on day 0 after ip administration of 2.5 mg/kg/day on day 1-5 out of 5 mice; assay type: functional; conditions: route intraperitoneal
Mus musculus [18] = test: Compound was evaluated for %T/C in P388 leukemia implanted BDF1 mice on day 0 after ip administration of 20 mg/kg/day on day 1; assay type: functional; conditions: route intraperitoneal
[19] = Half-life period in phosphate buffer at pH 7.4 in the dark at 28 degrees celsius.; assay type: ADME
Mus musculus [20] = test: Compound was evaluated for %T/C in P388 leukemia implanted BDF1 mice on day 0 after ip administration of 6.25 mg/kg/day on day 1-5; assay type: functional; conditions: route intraperitoneal
Mus musculus [21] = test: Compound was evaluated for number of survivors in L1210 leukemia implanted BDF1 mice on day 0 after ip administration of 12.5 mg/kg/day on day 60 out of 6 mice; assay type: functional; conditions: route intraperitoneal
Mus musculus [22] = test: Compound was tested for mortality in L1210 leukemia implanted BDF1 mice on day 0 after ip administration of 12.5 mg/kg/day on day 1-9 out of 6 mice; assay type: functional; conditions: route intraperitoneal
Mus musculus [23] = test: Compound was tested for mortality in L1210 leukemia implanted BDF1 mice on day 0 after ip administration of 7.5 mg/kg/day on day 1-5 out of 5 mice; assay type: functional; conditions: route intraperitoneal
Mus musculus [24] = test: Compound was tested for mortality in L1210 leukemia implanted BDF1 mice on day 0 after ip administration of 40 mg/kg/day on day 1 out of 5 mice; assay type: functional; conditions: route intraperitoneal
Mus musculus [25] = test: Compound was evaluated for %T/C in P388 leukemia implanted BDF1 mice on day 0 after ip administration of 40 mg/kg/day on day 1; assay type: functional; conditions: route intraperitoneal
Mus musculus [26] = test: Compound was tested for mortality in L1210 leukemia implanted BDF1 mice on day 0 after ip administration of 20 mg/kg/day on days 1-5 out of 5 mice; assay type: functional; conditions: route intraperitoneal
Mus musculus [27] = test: Compound was evaluated for %T/C in L1210 leukemia implanted BDF1 mice on day 0 after ip administration of 50 mg/kg/day on day 1-9; assay type: functional; conditions: route intraperitoneal
Mus musculus [28] = test: Compound was evaluated for number of survivors in L1210 leukemia implanted BDF1 mice on day 0 after ip administration of 50 mg/kg/day on day 60 out of 6 mice; assay type: functional; conditions: route intraperitoneal
Mus musculus [29] = test: Compound was evaluated for %T/C in P388 leukemia implanted BDF1 mice on day 0 after ip administration of 10 mg/kg/day on day 1; assay type: functional; conditions: route intraperitoneal
Mus musculus [30] = test: Compound was evaluated for number of survivors in P388 leukemia implanted BDF1 mice on day 0 after ip administration of 20 mg/kg/day on day 60 out of 5 mice; assay type: functional; conditions: route intraperitoneal
Mus musculus [31] = test: Compound was evaluated for number of survivors in L1210 leukemia implanted BDF1 mice on day 0 after ip administration of 3.12 mg/kg/day on day 60 out of 6 mice; assay type: functional; conditions: route intraperitoneal
Mus musculus [32] = test: Compound was tested for mortality in L1210 leukemia implanted BDF1 mice on day 0 after ip administration of 6.25 mg/kg/day on day 1-9 out of 6 mice; assay type: functional; conditions: route intraperitoneal
Mus musculus [33] = test: Compound was evaluated for %T/C in L1210 leukemia implanted BDF1 mice on day 0 after ip administration of 20 mg/kg/day on day 1; assay type: functional; conditions: route intraperitoneal
Mus musculus [34] = test: Compound was evaluated for number of survivors in L1210 leukemia implanted BDF1 mice on day 0 after ip administration of 80 mg/kg/day on day 60 out of 5 mice; assay type: functional; conditions: route intraperitoneal
Mus musculus [35] = test: Compound was evaluated for %T/C in P388 leukemia implanted BDF1 mice on day 0 after ip administration of 50 mg/kg/day on day 1-5; assay type: functional; conditions: route intraperitoneal
Mus musculus [36] = test: Compound was evaluated for %T/C in P388 leukemia implanted BDF1 mice on day 0 after ip administration of 5 mg/kg/day on day 1-5; assay type: functional; conditions: route intraperitoneal
Mus musculus [37] = test: Compound was evaluated for number of survivors in L1210 leukemia implanted BDF1 mice on day 0 after ip administration of 2.5 mg/kg/day on day 60 out of 5 mice; assay type: functional; conditions: route intraperitoneal
Mus musculus [38] = test: Compound was tested for mortality in L1210 leukemia implanted BDF1 mice on day 0 after ip administration of 25 mg/kg/day on day 1-9 out of 6 mice; assay type: functional; conditions: route intraperitoneal
Mus musculus [39] = test: Compound was tested for mortality in L1210 leukemia implanted BDF1 mice on day 0 after ip administration of 10 mg/kg/day on days 1-5 out of 5 mice; assay type: functional; conditions: route intraperitoneal

Compound: NC(=O)c1ncn2c(=O)n(CCCl)nnc12 [MITOZOLOMIDE]
- Mortality (Mus musculus [1]): 0
- T/C (Mus musculus [2]): 112%
- Survivors (Mus musculus [3]): 0
- T/C (Mus musculus [4]): >577%
- Survivors (Mus musculus [5]): 5
- T/C (Mus musculus [6]): >745%
- Survivors (Mus musculus [7]): 0
- T/C (Mus musculus [8]): 184%
- T/C (Mus musculus [9]): 148%
- Mortality (Mus musculus [10]): 0
- T/C (Mus musculus [11]): 74%
- Survivors (Mus musculus [12]): 0
- T/C (Mus musculus [13]): 275%
- Mortality (Mus musculus [14]): 0
- T/C (Mus musculus [15]): >745%
- T/C (Mus musculus [16]): 147%
- Mortality (Mus musculus [17]): 0
- T/C (Mus musculus [18]): >600%
- half-life [19]: 1.63 h
- T/C (Mus musculus [20]): 180%
- Survivors (Mus musculus [21]): 6
- Mortality (Mus musculus [22]): 0
- Mortality (Mus musculus [23]): 0
- Mortality (Mus musculus [24]): 0
- T/C (Mus musculus [25]): >600%
- Mortality (Mus musculus [26]): 0
- T/C (Mus musculus [27]): 137%
- Survivors (Mus musculus [28]): 0
- T/C (Mus musculus [29]): 164%
- Survivors (Mus musculus [30]): 5
- Survivors (Mus musculus [31]): 0
- Mortality (Mus musculus [32]): 0
- T/C (Mus musculus [33]): 198%
- Survivors (Mus musculus [34]): 0
- T/C (Mus musculus [35]): 153%
- T/C (Mus musculus [36]): 277%
- Survivors (Mus musculus [37]): 0
- Mortality (Mus musculus [38]): 0
- Mortality (Mus musculus [39]): 0
